# In US20130202685A1, “Use of a histamine H4 antagonist for the treatment of post-operative adhesions” (Janssen Pharmaceutica NV, priority 2008, published 2013):
# Several values for one entry are separate records, joined by “and”; a condition that tells them apart may be missing. Equal values may be shown once.
# Legend:
# [1] = tested on: adhesion formation at the site of sidewall injury; experiment: Peritoneal sidewall adhesion model (rabbit); format: in vivo; conditions: for Adhesion Area / Adhesion Tenacity: individual animals; for Adhesion Area Mean/SEM: group mean; for Adhesion Tenacity Mean/SEM (mean of the rank of the tenacity): group mean rank; for Adhesion Tenacity: score 0-3
# Method: Multiple studies to confirm the efficacy of histamine H4 receptor antagonists in the reduction or inhibition of adhesion formation after peritoneal surgery were performed using a sidewall adhesion model.
# Animals: Twenty eight female New Zealand White rabbits, 2.4-2.7 kg, were purchased from Irish Farms and quarantined for at least 2 days prior to use. The rabbits were housed on a 12:12 light:dark cycle with food and water available ad libitum.
# Rabbits were anesthetized with a mixture of 55 mg/kg ketamine hydrochloride and 5 mg/kg Rompum intramuscularly. Following preparation for sterile surgery, a midline laparotomy was performed. A polyethylene catheter (Clay Adams polyethylene tubing PE-60 ID 0.76 mm (0.030″) OD 1.22 mm (0.048″)) was introduced into the peritoneal cavity and sutured to the sidewall with 5-0 Ethilon. For local administration, an Alzet miniosmotic pump (10 μl/hour, 2 ml, Model 2ML1 from Durect), filled with one dosage level or placebo (water for injection) control at 10 μl/hour over 7 days starting with the day of surgery was placed in the subcutaneous space. The catheter was then attached to the pump and the midline muscle incision was closed around the catheter. The cecum and bowel were exteriorized and digital pressure was exerted to create subserosal hemorrhages over all surfaces. The damaged intestine was then lightly abraded with 4″×4″ 4-ply sterile gauze until punctate bleeding was observed. The cecum and bowel was then returned to their normal anatomic position. A 5×3 cm area of peritoneum and transversus abdominous muscle was removed on the right lateral abdominal wall. The incision was closed in two layers with 3-0 Vicryl (Ethicon, Somerville, N.J.). The pump was replaced at day 7.
# Twenty-one days after surgery, rabbits were sacrificed by intravenous EuthaSol. Adhesion formation at the site of sidewall injury was assessed by examination to determine the percentage of the area of the sidewall injury involved in adhesions. The percentage of a surface of the sidewall involved in adhesions to various organs are given in the tables below to quantify the overall adhesion score. In addition, tenacity of the adhesion formed was scored using a system as follows:
# 1=mild, easily dissectible adhesions;
# 3=dense adhesions; non-dissectible, tears when removed.
# The difference in adhesion formation between the control and treated groups were analyzed by Student's t-test. A reduction in the area and the tenacity of the adhesions would be considered beneficial and efficacious.
# General observations were conducted on each animal (appearance, behavior, clinical signs, symptoms, moribundity, mortality, and physical examinations) prior to assignment to study and on the day of necropsy. On the day of necropsy data and observations were recorded with particular attention to inflammation, granulomatous material and adhesion formation at the treatment site. All biocompatibility results were recorded, and the level of reaction was noted (none, mild, moderate, severe).
# [2] = tested on: adhesion formation at the site of sidewall injury; experiment: Peritoneal sidewall adhesion model (rabbit); format: in vivo; conditions: individual animals
# [3] = 5 mg/ml, non-systemic by Alzet pump, 21 days after surgery
# [4] = 5 mg/ml, non-systemic by pump, result in words
smiles,measurement,setting,value
CN1CCN(C(=O)c2c[nH]c3ccc(Cl)cc23)CC1 [(5-Chloro-1H-indol-3-yl)-(4-methyl-piperazin-1-yl)-methanone],Adhesion Area,"[1]; 5 mg/ml, non-systemic by Alzet pump 10 μl/hour, 21 days after surgery",60 percentage and 70 percentage and 40 percentage and 80 percentage and 50 percentage and 100 percentage (2×)
same,Adhesion Area Mean/SEM,[1]; [3],71.4 ± 8.8 percentage
same,Adhesion Tenacity Mean/SEM (mean of the rank of the tenacity),[1]; [3],6.93 ± 1.4
same,Adhesion Tenacity,[1]; [3],1 (6×) and 2
same,clinical signs,"[1]; 5 mg/ml, non-systemic by pump, general observations",No other rabbits showed any clinical signs
same,inflammatory or granulomatous reactions in the peritoneal cavity,"[1]; 5 mg/ml, non-systemic by pump, necropsy observation",no inflammatory or granulomatous reactions
same,area of adhesions versus control,[1]; [4],significantly reduced
same,tenacity of adhesions versus control,[1]; [4],significantly reduced
"Cc1cc(C)c2nc(-c3cnc(NCCCC4CCN(C)CC4)nc3C)[nH]c2c1 [Test Compound, [5-(4,6-dimethyl-1H-benzoimidazol-2-yl)-4-methyl-pyrimidin-2-yl]-[3-(1-methyl-piperidin-4-yl)-propyl]-amine]",Adhesion Area,"[2]; 30 mg/kg orally (gavage on day of surgery and four additional days), 21 days after surgery",100 percentage (3×) and 40 percentage and 70 percentage and 80 percentage and 60 percentage
same,Adhesion Tenacity,"[2]; 30 mg/kg orally, score 0-3",3 (2×) and 1 (3×) and 2 (2×)
same,Adhesion Area,"[1]; 0.1 mg/ml, non-systemic (pump), 21 days after surgery",80 percentage (2×) and 100 percentage (3×) and 70 percentage (2×)
same,Adhesion Area Mean/SEM,"[1]; 0.1 mg/ml, non-systemic (pump)",85.7 ± 5.28 percentage
same,Adhesion Tenacity Mean/SEM (mean of the rank of the tenacity),"[1]; 0.1 mg/ml, non-systemic (pump)",20.1 ± 3.37
same,Adhesion Tenacity,"[1]; 0.1 mg/ml, non-systemic (pump)",2 (5×) and 3 and 1
same,Adhesion Area,"[1]; 1 mg/ml, non-systemic (pump), 21 days after surgery",80 percentage (3×) and 70 percentage and 60 percentage (3×)
same,Adhesion Area Mean/SEM,"[1]; 1 mg/ml, non-systemic (pump)",70 ± 10 percentage
same,Adhesion Tenacity Mean/SEM (mean of the rank of the tenacity),"[1]; 1 mg/ml, non-systemic (pump)",13.9 ± 3.38
same,Adhesion Tenacity,"[1]; 1 mg/ml, non-systemic (pump)",2 (4×) and 1 (3×)
same,Adhesion Area,"[1]; 10 mg/ml, non-systemic (pump), 21 days after surgery",100 percentage (2×) and 60 percentage (2×) and 80 percentage (2×) and 90 percentage
same,Adhesion Area Mean/SEM,"[1]; 10 mg/ml, non-systemic (pump)",81.4 ± 6.34 percentage
same,Adhesion Tenacity Mean/SEM (mean of the rank of the tenacity),"[1]; 10 mg/ml, non-systemic (pump)",18.3 ± 1.43
same,Adhesion Tenacity,"[1]; 10 mg/ml, non-systemic (pump)",2 (6×) and 1
same,Adhesion Area Mean/SEM,[1]; 30 mg/kg orally,78.6 ± 8.85 percentage
same,Adhesion Tenacity Mean/SEM (mean of the rank of the tenacity),[1]; 30 mg/kg orally,17.6 ± 5.27
same,tenacity of adhesions,"[1]; mid-dose (1 mg/ml) administered by pump, not statistically significant, result in words",appeared reduced
same,area of adhesion reduction,"[1]; mid-dose (1 mg/ml) administered by pump, result in words",statistically significant
